pIC50, pKi: −log10 of the molar value.
Assays:
[1] = target: T1, 5-hydroxytryptamine receptor 2C (Homo sapiens, UniProt P28335); assay: DRUGMATRIX: Serotonin (5-Hydroxytryptamine) 5-HT2C radioligand binding (ligand: [3H] Mesulergine); type: cell membranes, CHO-K1, Membrane; settings: Not Active = under 50% inhibition at 10 µM
T1 sequence (P28335 whole entry): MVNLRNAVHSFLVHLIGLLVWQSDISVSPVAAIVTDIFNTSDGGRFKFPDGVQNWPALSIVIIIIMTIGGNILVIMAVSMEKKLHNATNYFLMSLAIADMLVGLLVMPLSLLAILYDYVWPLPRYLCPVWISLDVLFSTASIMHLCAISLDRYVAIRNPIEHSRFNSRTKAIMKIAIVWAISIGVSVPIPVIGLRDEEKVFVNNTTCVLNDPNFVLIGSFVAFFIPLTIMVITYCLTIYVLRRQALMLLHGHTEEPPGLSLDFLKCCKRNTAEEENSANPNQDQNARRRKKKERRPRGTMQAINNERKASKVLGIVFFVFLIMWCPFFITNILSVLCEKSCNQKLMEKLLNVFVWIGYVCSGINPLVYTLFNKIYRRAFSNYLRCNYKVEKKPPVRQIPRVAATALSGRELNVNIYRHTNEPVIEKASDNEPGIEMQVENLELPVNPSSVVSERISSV

[2] = target: T2, C-X-C chemokine receptor type 1 (Homo sapiens, UniProt P25024); also: in other assays of this panel Not Active means under 50% inhibition at 10 µM
T2 sequence (P25024 whole entry): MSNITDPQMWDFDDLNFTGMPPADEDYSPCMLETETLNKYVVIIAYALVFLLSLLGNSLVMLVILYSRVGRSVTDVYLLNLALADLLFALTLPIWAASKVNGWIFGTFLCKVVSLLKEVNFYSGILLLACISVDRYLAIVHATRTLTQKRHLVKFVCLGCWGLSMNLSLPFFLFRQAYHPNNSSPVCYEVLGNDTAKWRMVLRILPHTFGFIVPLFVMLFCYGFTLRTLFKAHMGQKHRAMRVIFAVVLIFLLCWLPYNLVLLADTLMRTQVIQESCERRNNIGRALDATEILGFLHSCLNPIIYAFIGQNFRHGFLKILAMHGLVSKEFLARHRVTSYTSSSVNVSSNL

[3] = target: Prostaglandin G/H synthase 1 (Homo sapiens, UniProt P23219); assay: biochemical; type: tissue-based, Platelet; settings: platelet;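 also: inhibition of COX-1 enzyme activity, with arachidonic acid supplied as substrate; in other assays of this panel Not Active means under 50% inhibition at 10 µM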
[4] = target: T3, Muscarinic acetylcholine receptor M4 (Homo sapiens, UniProt P08173); type: cell membranes, CHO-K1, Membrane; settings: cho-k1; also: in other assays of this panel Not Active means under 50% inhibition at 10 µM
T3 sequence (P08173 whole entry): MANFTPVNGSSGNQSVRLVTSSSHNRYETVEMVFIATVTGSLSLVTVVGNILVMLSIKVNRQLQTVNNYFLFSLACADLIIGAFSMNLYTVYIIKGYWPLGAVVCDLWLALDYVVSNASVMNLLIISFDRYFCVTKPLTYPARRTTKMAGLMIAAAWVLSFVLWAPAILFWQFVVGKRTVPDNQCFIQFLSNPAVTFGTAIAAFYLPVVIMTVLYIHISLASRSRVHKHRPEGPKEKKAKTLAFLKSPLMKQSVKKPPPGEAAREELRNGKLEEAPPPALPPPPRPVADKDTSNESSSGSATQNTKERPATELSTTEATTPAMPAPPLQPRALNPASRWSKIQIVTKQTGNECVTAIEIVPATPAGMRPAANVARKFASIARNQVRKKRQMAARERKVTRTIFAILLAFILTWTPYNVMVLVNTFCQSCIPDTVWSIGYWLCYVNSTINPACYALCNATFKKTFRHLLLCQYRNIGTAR

Acetylcholinesterase = Acetylcholinesterase (Homo sapiens, UniProt P22303); assay: DRUGMATRIX: Acetylcholinesterase enzyme inhibition (substrate: acetylthiocholine); type: cell-based, HEK293; settings: hek293; Not Active = under 50% inhibition at 10 µM
Cytochrome P450 2D6 = Cytochrome P450 2D6 (Homo sapiens, UniProt P10635); settings: bti-tn-5b1-4; also: in other assays of this panel Not Active means under 50% inhibition at 10 µM
Estrogen receptor = target: T4, Estrogen receptor (Homo sapiens, UniProt P03372); settings: sf9; also: in other assays of this panel Not Active means under 50% inhibition at 10 µM
T4 sequence (P03372 whole entry): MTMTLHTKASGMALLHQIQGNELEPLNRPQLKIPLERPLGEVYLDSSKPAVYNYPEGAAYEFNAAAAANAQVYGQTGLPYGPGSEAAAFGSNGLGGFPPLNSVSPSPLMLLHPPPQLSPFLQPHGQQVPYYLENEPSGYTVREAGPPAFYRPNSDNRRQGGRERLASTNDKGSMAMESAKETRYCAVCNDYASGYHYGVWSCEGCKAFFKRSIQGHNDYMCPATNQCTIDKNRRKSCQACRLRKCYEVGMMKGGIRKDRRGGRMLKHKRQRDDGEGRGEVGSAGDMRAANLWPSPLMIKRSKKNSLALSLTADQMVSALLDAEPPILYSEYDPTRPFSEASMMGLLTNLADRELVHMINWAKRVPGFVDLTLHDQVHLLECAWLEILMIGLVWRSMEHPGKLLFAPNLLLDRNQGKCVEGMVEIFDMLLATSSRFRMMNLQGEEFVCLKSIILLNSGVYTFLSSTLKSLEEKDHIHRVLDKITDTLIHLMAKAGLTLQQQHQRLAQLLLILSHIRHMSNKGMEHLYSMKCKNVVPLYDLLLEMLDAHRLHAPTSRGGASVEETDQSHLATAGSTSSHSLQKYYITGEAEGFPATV

Sequence of Acetylcholinesterase (P22303 whole entry): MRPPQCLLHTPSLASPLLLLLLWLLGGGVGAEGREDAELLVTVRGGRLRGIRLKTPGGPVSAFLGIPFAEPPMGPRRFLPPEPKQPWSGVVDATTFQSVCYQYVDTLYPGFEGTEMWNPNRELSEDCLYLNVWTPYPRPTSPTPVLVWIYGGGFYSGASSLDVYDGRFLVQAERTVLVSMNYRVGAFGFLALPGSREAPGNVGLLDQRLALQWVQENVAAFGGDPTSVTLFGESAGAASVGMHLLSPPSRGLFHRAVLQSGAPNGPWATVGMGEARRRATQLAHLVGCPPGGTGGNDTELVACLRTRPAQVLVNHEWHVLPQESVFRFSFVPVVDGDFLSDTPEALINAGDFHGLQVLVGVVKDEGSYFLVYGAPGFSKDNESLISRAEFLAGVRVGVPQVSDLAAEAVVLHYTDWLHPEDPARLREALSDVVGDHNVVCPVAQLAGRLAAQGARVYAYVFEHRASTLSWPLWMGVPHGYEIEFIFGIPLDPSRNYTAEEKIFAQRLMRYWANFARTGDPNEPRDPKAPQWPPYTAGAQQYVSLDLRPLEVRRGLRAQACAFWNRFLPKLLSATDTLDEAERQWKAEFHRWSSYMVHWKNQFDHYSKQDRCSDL
Sequence of Prostaglandin G/H synthase 1 (P23219 whole entry): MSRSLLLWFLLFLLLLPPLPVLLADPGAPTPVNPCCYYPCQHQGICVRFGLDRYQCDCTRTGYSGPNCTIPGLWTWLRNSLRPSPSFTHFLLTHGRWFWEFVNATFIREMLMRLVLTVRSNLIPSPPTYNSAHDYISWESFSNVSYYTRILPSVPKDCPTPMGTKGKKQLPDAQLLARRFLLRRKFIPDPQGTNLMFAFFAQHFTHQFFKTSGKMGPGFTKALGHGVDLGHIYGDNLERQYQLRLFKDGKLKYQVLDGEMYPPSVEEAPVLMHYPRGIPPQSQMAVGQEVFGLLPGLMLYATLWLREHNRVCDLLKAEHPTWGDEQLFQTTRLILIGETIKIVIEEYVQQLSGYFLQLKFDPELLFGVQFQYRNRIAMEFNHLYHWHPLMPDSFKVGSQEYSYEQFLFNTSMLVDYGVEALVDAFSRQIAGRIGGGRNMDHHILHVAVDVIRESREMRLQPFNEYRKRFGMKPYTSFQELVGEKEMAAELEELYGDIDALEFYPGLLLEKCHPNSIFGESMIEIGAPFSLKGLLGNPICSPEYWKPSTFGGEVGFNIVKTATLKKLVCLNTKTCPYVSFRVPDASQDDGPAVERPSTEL
Sequence of Cytochrome P450 2D6 (P10635 whole entry): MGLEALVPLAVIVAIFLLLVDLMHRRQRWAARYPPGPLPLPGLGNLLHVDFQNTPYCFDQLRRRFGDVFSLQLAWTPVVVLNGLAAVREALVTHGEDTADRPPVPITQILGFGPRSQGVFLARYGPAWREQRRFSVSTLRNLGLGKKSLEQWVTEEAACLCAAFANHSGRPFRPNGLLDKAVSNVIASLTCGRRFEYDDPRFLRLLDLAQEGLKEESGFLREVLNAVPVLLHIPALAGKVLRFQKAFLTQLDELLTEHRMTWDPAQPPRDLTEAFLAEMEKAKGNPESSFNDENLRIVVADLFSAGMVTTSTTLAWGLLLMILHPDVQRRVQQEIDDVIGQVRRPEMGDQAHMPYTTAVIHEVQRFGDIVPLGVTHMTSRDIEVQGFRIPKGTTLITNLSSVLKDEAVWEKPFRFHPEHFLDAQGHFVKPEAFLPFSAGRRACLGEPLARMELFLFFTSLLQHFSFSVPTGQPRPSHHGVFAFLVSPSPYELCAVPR

Molecule: CCOC(=O)C1=C(C)NC(C)=C(C(=O)OC)C1c1cccc([N+](=O)[O-])c1 (centres undefined) [NITRENDIPINE]
- IC50 ([1]; cho-k1): Not Active
- IC50 [2]: Not Active
- IC50 [3]: Not Active
- IC50 [4]: Not Active
- IC50 (Acetylcholinesterase): Not Active
- IC50 (Cytochrome P450 2D6): Not Active
- Ki (Cytochrome P450 2D6): Not Active
- IC50 (Estrogen receptor): Not Active

Molecule: COc1ccc2[nH]c([S+]([O-])Cc3ncc(C)c(OC)c3C)nc2c1 (centres undefined) [OMEPRAZOLE]
- IC50 ([1]; cho-k1): Not Active
- IC50 [2]: Not Active
- IC50 [3]: Not Active
- IC50 [4]: Not Active
- IC50 (Acetylcholinesterase): Not Active
- IC50 (Cytochrome P450 2D6): Not Active
- Ki (Cytochrome P450 2D6): Not Active
- IC50 (Estrogen receptor): Not Active

Molecule: Cc1nccn1CC1CCc2c(c3ccccc3n2C)C1=O (centres undefined) [ONDANSETRON]
- IC50 ([1]; cho-k1): Not Active
- IC50 [2]: Not Active
- IC50 [3]: Not Active
- IC50 [4]: Not Active
- IC50 (Acetylcholinesterase): Not Active
- IC50 (Cytochrome P450 2D6): Not Active
- Ki (Cytochrome P450 2D6): Not Active
- IC50 (Estrogen receptor): Not Active

Molecule: CCCCOc1ccc(OCCCN2CCOCC2)cc1 [PRAMOXINE]
- IC50 ([1]; cho-k1): Not Active
- IC50 [2]: Not Active
- IC50 [3]: Not Active
- IC50 [4]: Not Active
- IC50 (Acetylcholinesterase): Not Active
- IC50 (Cytochrome P450 2D6): Not Active
- Ki (Cytochrome P450 2D6): Not Active
- IC50 (Estrogen receptor): Not Active

Molecule: NC(=O)c1cnccn1 [PYRAZINAMIDE]
- IC50 ([1]; cho-k1): Not Active
- IC50 [2]: Not Active
- IC50 [3]: Not Active
- IC50 [4]: Not Active
- IC50 (Acetylcholinesterase): Not Active
- IC50 (Cytochrome P450 2D6): Not Active
- Ki (Cytochrome P450 2D6): Not Active
- IC50 (Estrogen receptor): Not Active

Molecule: Cc1cc2cc3c(C)cc(=O)oc3c(C)c2o1 [TRIOXSALEN]
- pIC50 ([1]; read-out: IC50): 5.63
- pKi ([1]; read-out: Ki): 5.91
- IC50 [2]: Not Active
- IC50 [3]: Not Active
- IC50 [4]: Not Active
- IC50 (Acetylcholinesterase): Not Active
- IC50 (Cytochrome P450 2D6): Not Active
- Ki (Cytochrome P450 2D6): Not Active
- IC50 (Estrogen receptor): Not Active

Molecule: CCCC(CCC)C(=O)O [VALPROIC ACID]
- IC50 ([1]; cho-k1): Not Active
- IC50 [2]: Not Active
- IC50 [3]: Not Active
- IC50 [4]: Not Active
- IC50 (Acetylcholinesterase): Not Active
- IC50 (Cytochrome P450 2D6): Not Active
- Ki (Cytochrome P450 2D6): Not Active
- IC50 (Estrogen receptor): Not Active

Molecule: CCC1=C[C@@H]2CN(C1)Cc1c([nH]c3ccccc13)[C@@](C(=O)OC)(c1cc3c(cc1OC)N(C)[C@H]1[C@@](O)(C(=O)OC)[C@H](OC(C)=O)[C@]4(CC)C=CCN5CC[C@]31[C@@H]54)C2 [VINORELBINE]
- IC50 ([1]; cho-k1): Not Active
- IC50 [2]: Not Active
- IC50 [3]: Not Active
- IC50 [4]: Not Active
- IC50 (Acetylcholinesterase): Not Active
- IC50 (Cytochrome P450 2D6): Not Active
- Ki (Cytochrome P450 2D6): Not Active
- IC50 (Estrogen receptor): Not Active

Molecule: CADMIUM DICHLORIDE
- IC50 ([1]; cho-k1): Not Active
- Ki ([1]; cho-k1): Not Active
- IC50 [2]: Not Active
- Ki [2]: Not Active
- IC50 [3]: Not Active
- Ki [3]: Not Active
- IC50 [4]: Not Active
- Ki [4]: Not Active
- IC50 (Acetylcholinesterase): Not Active
- Ki (Acetylcholinesterase): Not Active
- IC50 (Cytochrome P450 2D6): Not Active
- Ki (Cytochrome P450 2D6): Not Active
- IC50 (Estrogen receptor): Not Active
- Ki (Estrogen receptor): Not Active
